Measurements taken from ChEMBL document CHEMBL5352486, “Design, synthesis, in vitro - In vivo biological evaluation of novel thiazolopyrimidine compounds as antileishmanial agent with PTR1 inhibition” (Eur J Med Chem, 2023).
Values after ≈ are worked out from the molar mass of the structure shown. Active and inactive are the calls of the source. The calls are words filed in the database; no cut-off is given here.

Columns and labels:
Leishmania tropica = assay: Antileishmanial activity against Leishmania tropica MHOM/A7/1974/SAF-K27 incubated for 48 hrs by Neubauer hemocytometer analysis; assay type: functional, organism-based; details: MHOM/A7/1974/SAF-K27, 48 h
Leishmania infantum [1] = assay: Antileishmanial activity against Leishmania infantum MHOM/TN/1980/IPT1 incubated for 48 hrs by XTT method; assay type: functional, organism-based; details: MHOM/TN/1980/IPT1, 48 h
[2] = (§1) Cytotoxicity against mouse L929 cells by alamar blue method; assay type: toxicity, cell-based; details: mouse, L929 cells
L929 = assay: as §1; assay type: toxicity, cell-based; details: l929
[3] = (§2) Cytotoxicity against mouse RAW264.7 cells by alamar blue method; assay type: toxicity, cell-based; details: mouse, RAW264.7 cells
RAW264.7 = assay: as §2; assay type: toxicity, cell-based; details: raw264.7
Leishmania infantum [4] = assay: Antileishmanial activity against Leishmania infantum infected in BALB/c mouse model of cutaneous leishmaniasis assessed as footpad lesion development at 50 mg/kg/day, ID administered for 21 days and measured after 2 weeks by Giemsa staining based analysis (reference value: 1.61 +/- 0.03); assay type: functional; details: time 21 day
Leishmania infantum [5] = assay: Antileishmanial activity against Leishmania infantum infected in BALB/c mouse model of cutaneous leishmaniasis assessed as footpad lesion development at 50 mg/kg/day, ID administered for 21 days and measured after 4 weeks by Giemsa staining based analysis (reference value: 1.90 +/- 0.03); assay type: functional; details: time 21 day
Leishmania infantum [6] = assay: Antileishmanial activity against Leishmania infantum infected in BALB/c mouse model of cutaneous leishmaniasis assessed as footpad lesion development at 50 mg/kg/day, ID administered for 21 days and measured after 6 weeks by Giemsa staining based analysis (reference value: 2.40 +/- 0.03); assay type: functional; details: time 21 day
Leishmania infantum [7] = assay: Antileishmanial activity against Leishmania infantum infected in BALB/c mouse model of cutaneous leishmaniasis assessed as footpad lesion development at 50 mg/kg/day, ID administered for 21 days and measured after 8 weeks by Giemsa staining based analysis (reference value: 3.13 +/- 0.03); assay type: functional; details: time 21 day
Leishmania infantum [8] = assay: Antileishmanial activity against Leishmania infantum infected in BALB/c mouse model of cutaneous leishmaniasis assessed as footpad lesion development at 50 mg/kg/day, ID administered for 21 days and measured after 10 weeks by Giemsa staining based analysis (reference value: 3.40 +/- 0.03); assay type: functional; details: time 21 day
Leishmania infantum [9] = assay: Antileishmanial activity against Leishmania infantum infected in BALB/c mouse model of cutaneous leishmaniasis assessed as footpad lesion development at 50 mg/kg/day, ID administered for 21 days and measured after 16 weeks by Giemsa staining based analysis (reference value: 4.20 +/- 0.03); assay type: functional; details: time 21 day
Leishmania infantum [10] = assay: Antileishmanial activity against Leishmania infantum infected in BALB/c mouse model of cutaneous leishmaniasis assessed as footpad lesion development at 50 mg/kg/day, ID administered for 21 days and measured after 20 weeks by Giemsa staining based analysis (reference value: 4.54 +/- 0.04); assay type: functional; details: time 21 day
Leishmania infantum [11] = assay: Antileishmanial activity against Leishmania infantum infected in BALB/c mouse model of cutaneous leishmaniasis assessed as footpad lesion development at 50 mg/kg/day, ID administered for 21 days and measured after 22 weeks by Giemsa staining based analysis (reference value: 4.71 +/- 0.04); assay type: functional; details: time 21 day
Leishmania infantum [12] = assay: Antileishmanial activity against Leishmania infantum infected in BALB/c mouse model of cutaneous leishmaniasis assessed as footpad lesion development at 50 mg/kg/day, ID administered for 21 days and measured after 24 weeks by Giemsa staining based analysis (reference value: 4.90 +/- 0.02); assay type: functional; details: time 21 day
Leishmania infantum [13] = assay: Antileishmanial activity against Leishmania infantum infected in BALB/c mouse model of cutaneous leishmaniasis assessed as footpad lesion development at 50 mg/kg/day, ID administered for 21 days and measured after 28 weeks by Giemsa staining based analysis (reference value: 4.92 +/- 0.01); assay type: functional; details: time 21 day
Leishmania infantum [14] = assay: Antileishmanial activity against Leishmania infantum infected in BALB/c mouse model of cutaneous leishmaniasis assessed as footpad lesion development at 50 mg/kg/day, ID administered for 21 days and measured after 30 weeks by Giemsa staining based analysis (reference value: 4.92 +/- 0.01); assay type: functional; details: time 21 day
Leishmania infantum [15] = assay: Antileishmanial activity against Leishmania infantum infected in BALB/c mouse model of cutaneous leishmaniasis assessed as footpad lesion development at 50 mg/kg/day, ID administered for 21 days and measured after 32 weeks by Giemsa staining based analysis (reference value: 4.91 +/- 0.01); assay type: functional; details: time 21 day
Leishmania infantum [16] = assay: Antileishmanial activity against Leishmania infantum infected in BALB/c mouse model of visceral leishmaniasis assessed as footpad lesion development at 50 mg/kg/day, IM administered for 21 days and measured after 1 week by Giemsa staining based analysis (reference value: 30.43 +/- 0.60); assay type: functional; details: time 21 day
Leishmania infantum [17] = assay: Antileishmanial activity against Leishmania infantum infected in BALB/c mouse model of visceral leishmaniasis assessed as footpad lesion development at 50 mg/kg/day, IM administered for 21 days and measured after 2 weeks by Giemsa staining based analysis (reference value: 29.73 +/- 0.63); assay type: functional; details: time 21 day
Leishmania infantum [18] = assay: Antileishmanial activity against Leishmania infantum infected in BALB/c mouse model of visceral leishmaniasis assessed as footpad lesion development at 50 mg/kg/day, IM administered for 21 days and measured after 4 weeks by Giemsa staining based analysis (reference value: 28.01 +/- 0.65); assay type: functional; details: time 21 day
Leishmania infantum [19] = assay: Antileishmanial activity against Leishmania infantum infected in BALB/c mouse model of visceral leishmaniasis assessed as footpad lesion development at 50 mg/kg/day, IM administered for 21 days and measured after 5 weeks by Giemsa staining based analysis (reference value: 27.04 +/- 0.65); assay type: functional; details: time 21 day
Leishmania infantum [20] = assay: Antileishmanial activity against Leishmania infantum infected in BALB/c mouse model of visceral leishmaniasis assessed as footpad lesion development at 50 mg/kg/day, IM administered for 21 days and measured after 7 weeks by Giemsa staining based analysis (reference value: 24.85 +/- 0.88); assay type: functional; details: time 21 day
Leishmania infantum [21] = assay: Antileishmanial activity against Leishmania infantum infected in BALB/c mouse model of visceral leishmaniasis assessed as footpad lesion development at 50 mg/kg/day, IM administered for 21 days and measured after 8 weeks by Giemsa staining based analysis (reference value: 23.84 +/- 0.93); assay type: functional; details: time 21 day
Leishmania infantum [22] = assay: Antileishmanial activity against Leishmania infantum infected in BALB/c mouse model of visceral leishmaniasis assessed as footpad lesion development at 50 mg/kg/day, IM administered for 21 days and measured after 11 weeks by Giemsa staining based analysis (reference value: 20.71 +/- 0.48); assay type: functional; details: time 21 day
Leishmania infantum [23] = assay: Antileishmanial activity against Leishmania infantum infected in BALB/c mouse model of visceral leishmaniasis assessed as parasite growth in liver at 50 mg/kg/day, IM administered for 21 days; assay type: functional, organism-based; details: time 21.0 day
Leishmania infantum [24] = assay: Antileishmanial activity against Leishmania infantum infected in BALB/c mouse model of visceral leishmaniasis assessed as parasite growth in spleen at 50 mg/kg/day, IM administered for 21 days; assay type: functional, organism-based; details: time 21.0 day
Leishmania infantum [25] = assay: Antileishmanial activity against Leishmania infantum infected in BALB/c mouse model of cutaneous leishmaniasis assessed as parasite growth in liver at 50 mg/kg/day, ID administered for 21 days; assay type: functional, organism-based; details: time 21.0 day
Leishmania infantum [26] = assay: Antileishmanial activity against Leishmania infantum infected in BALB/c mouse model of cutaneous leishmaniasis assessed as parasite growth in foodpad at 50 mg/kg/day, ID administered for 21 days; assay type: functional, organism-based; details: time 21.0 day

Structure (SMILES)	IC50 (Leishmania tropica) [µg/mL]	IC50 (Leishmania infantum [1]) [µg/mL]	IC50 [2] [µg/mL]	log10 IC50 (µg/mL) (L929)	IC50 [3] [µg/mL]	log10 IC50 (µg/mL) (RAW264.7)	Activity (Leishmania infantum [4])	Activity (Leishmania infantum [5])	Activity (Leishmania infantum [6])	Activity (Leishmania infantum [7])	Activity (Leishmania infantum [8])	Activity (Leishmania infantum [9])	Activity (Leishmania infantum [10])	Activity (Leishmania infantum [11])	Activity (Leishmania infantum [12])	Activity (Leishmania infantum [13])	Activity (Leishmania infantum [14])	Activity (Leishmania infantum [15])	Activity (Leishmania infantum [16])	Activity (Leishmania infantum [17])	other results
CN(C)c1ncc2nc(NC(=O)c3ccc(Cl)c([N+](=O)[O-])c3)sc2n1	7.14 (≈ 18.8 µM)	6.77 (≈ 17.9 µM)	21 (≈ 55.5 µM)	1.32	8.75 (≈ 23.1 µM)	0.94	1.59	1.89	2.39	3.09	3.37	3.83	4.53	4.67	4.88	3.71	2.58	2.08	30.38	29.49	Activity (Leishmania infantum [18]): 27.83; Activity (Leishmania infantum [19]): 26.95; Activity (Leishmania infantum [20]): 26.77; Activity (Leishmania infantum [21]): 27.42; Activity (Leishmania infantum [22]): 29.85; Activity (Leishmania infantum [23]): Active; Activity (Leishmania infantum [24]): Active; Activity (Leishmania infantum [25]): Active; Activity (Leishmania infantum [26]): Active
CCOC(=O)N1CCN(c2ncc3nc(NC(=O)c4ccc(Cl)c(Cl)c4)sc3n2)CC1	0.039 (≈ 0.081 µM)	0.042 (≈ 0.0873 µM)	14.1 (≈ 29.3 µM)	1.15	15 (≈ 31.2 µM)	1.18	1.6	1.88	2.4	3.1	3.39	4.2	4.52	4.69	4.9	3.8	2.89	2.42	30.63	29.54	Activity (Leishmania infantum [18]): 27.85; Activity (Leishmania infantum [19]): 26.78; Activity (Leishmania infantum [20]): 26.22; Activity (Leishmania infantum [21]): 26.84; Activity (Leishmania infantum [22]): 28.55; Activity (Leishmania infantum [23]): Active; Activity (Leishmania infantum [24]): inactive; Activity (Leishmania infantum [25]): Active; Activity (Leishmania infantum [26]): Active
CN1CCN(c2ncc3nc(NC(=O)c4ccc(Cl)c(Cl)c4)sc3n2)CC1	7.71 (≈ 18.2 µM)	8.28 (≈ 19.6 µM)	27.7 (≈ 65.5 µM)	1.44	16.4 (≈ 38.8 µM)	1.22	1.61	1.88	2.41	3.1	3.41	4.21	4.53	4.69	4.89	4.83	4.78	4.73	30.3	29.53	Activity (Leishmania infantum [18]): 27.9; Activity (Leishmania infantum [19]): 26.63; Activity (Leishmania infantum [20]): 24.43; Activity (Leishmania infantum [21]): 23.36; Activity (Leishmania infantum [22]): 20.13; Activity (Leishmania infantum [23]): inactive; Activity (Leishmania infantum [24]): Active; Activity (Leishmania infantum [25]): Active; Activity (Leishmania infantum [26]): inactive
